# Laboratory results taken from US10239869B2, “Sulfonamide compounds as voltage-gated sodium channel modulators” (LUPIN LIMITED, priority 2015, dated 2019).
# Like-named read-outs stand apart in the source and are kept apart here.
# Columns and labels:
# Nav 1.5 = Nav 1.5 (Homo sapiens (Human), UniProt Q14524); assay: Inhibition of sodium channels, Red Membrane Potential Dye FLIPR assay, veratridine depolarization; format: cell-based; conditions: HEK-293 cells overexpressing the channel; for inhibition at 10 µM: HEK-293 cells overexpressing Nav 1.5
# Nav 1.7 = Nav 1.7 (Homo sapiens (Human), UniProt Q15858); assay: as above; format: cell-based; conditions: HEK-293 cells overexpressing the channel; for IC50: read-out: Nav1.7 IC50
# [1] = read-out: Nav1.5 IC50 (bound given in μM)
# Nav 1.5, sequence (Q14524 whole entry): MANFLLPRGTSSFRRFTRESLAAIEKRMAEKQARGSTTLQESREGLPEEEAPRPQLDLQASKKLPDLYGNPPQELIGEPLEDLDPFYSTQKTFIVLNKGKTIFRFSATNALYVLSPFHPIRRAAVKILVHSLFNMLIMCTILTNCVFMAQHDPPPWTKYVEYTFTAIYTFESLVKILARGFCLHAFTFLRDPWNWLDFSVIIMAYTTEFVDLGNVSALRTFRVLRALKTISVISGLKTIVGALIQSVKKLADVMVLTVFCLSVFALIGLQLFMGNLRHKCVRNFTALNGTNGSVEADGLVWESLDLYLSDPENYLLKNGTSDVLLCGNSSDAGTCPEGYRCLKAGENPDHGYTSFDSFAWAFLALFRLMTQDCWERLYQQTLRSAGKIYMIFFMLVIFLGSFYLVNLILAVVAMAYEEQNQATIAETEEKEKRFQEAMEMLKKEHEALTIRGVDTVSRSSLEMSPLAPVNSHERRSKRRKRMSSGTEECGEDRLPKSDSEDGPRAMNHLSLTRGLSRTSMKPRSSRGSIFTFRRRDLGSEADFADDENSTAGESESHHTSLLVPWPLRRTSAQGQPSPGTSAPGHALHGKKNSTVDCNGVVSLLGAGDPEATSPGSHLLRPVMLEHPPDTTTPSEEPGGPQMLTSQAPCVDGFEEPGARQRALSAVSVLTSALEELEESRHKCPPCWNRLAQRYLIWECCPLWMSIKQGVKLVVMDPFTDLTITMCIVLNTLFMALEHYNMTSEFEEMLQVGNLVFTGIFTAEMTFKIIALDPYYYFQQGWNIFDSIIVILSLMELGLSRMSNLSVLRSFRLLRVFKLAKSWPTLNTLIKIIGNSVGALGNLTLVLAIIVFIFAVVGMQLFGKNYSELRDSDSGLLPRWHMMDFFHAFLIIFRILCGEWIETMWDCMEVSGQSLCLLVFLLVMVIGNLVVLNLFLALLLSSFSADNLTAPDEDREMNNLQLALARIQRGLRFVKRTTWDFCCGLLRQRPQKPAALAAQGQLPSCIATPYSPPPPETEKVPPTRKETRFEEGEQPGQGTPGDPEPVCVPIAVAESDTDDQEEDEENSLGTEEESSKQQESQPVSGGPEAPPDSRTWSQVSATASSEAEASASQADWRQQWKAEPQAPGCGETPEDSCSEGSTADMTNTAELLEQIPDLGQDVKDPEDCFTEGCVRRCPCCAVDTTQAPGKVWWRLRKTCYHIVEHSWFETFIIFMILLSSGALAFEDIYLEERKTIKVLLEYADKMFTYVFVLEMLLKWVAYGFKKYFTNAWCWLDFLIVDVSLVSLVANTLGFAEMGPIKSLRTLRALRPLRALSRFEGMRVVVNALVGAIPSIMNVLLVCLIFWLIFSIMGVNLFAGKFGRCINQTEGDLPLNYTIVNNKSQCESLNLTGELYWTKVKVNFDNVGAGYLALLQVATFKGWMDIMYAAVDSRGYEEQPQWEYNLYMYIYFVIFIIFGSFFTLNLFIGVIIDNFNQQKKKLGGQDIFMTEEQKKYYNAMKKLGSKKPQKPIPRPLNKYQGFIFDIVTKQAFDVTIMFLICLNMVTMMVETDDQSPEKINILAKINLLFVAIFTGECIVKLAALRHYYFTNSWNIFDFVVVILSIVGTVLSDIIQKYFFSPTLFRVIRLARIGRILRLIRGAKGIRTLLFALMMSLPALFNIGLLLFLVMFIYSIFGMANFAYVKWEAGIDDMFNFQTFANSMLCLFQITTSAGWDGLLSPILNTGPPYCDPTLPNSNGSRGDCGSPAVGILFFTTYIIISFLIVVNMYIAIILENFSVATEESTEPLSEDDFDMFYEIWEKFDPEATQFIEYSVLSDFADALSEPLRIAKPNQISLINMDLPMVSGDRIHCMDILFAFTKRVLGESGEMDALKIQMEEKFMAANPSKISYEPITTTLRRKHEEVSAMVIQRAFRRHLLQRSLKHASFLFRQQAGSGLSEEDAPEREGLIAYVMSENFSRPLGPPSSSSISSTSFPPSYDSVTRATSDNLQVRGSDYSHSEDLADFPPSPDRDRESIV
# Nav 1.7, sequence (Q15858 whole entry): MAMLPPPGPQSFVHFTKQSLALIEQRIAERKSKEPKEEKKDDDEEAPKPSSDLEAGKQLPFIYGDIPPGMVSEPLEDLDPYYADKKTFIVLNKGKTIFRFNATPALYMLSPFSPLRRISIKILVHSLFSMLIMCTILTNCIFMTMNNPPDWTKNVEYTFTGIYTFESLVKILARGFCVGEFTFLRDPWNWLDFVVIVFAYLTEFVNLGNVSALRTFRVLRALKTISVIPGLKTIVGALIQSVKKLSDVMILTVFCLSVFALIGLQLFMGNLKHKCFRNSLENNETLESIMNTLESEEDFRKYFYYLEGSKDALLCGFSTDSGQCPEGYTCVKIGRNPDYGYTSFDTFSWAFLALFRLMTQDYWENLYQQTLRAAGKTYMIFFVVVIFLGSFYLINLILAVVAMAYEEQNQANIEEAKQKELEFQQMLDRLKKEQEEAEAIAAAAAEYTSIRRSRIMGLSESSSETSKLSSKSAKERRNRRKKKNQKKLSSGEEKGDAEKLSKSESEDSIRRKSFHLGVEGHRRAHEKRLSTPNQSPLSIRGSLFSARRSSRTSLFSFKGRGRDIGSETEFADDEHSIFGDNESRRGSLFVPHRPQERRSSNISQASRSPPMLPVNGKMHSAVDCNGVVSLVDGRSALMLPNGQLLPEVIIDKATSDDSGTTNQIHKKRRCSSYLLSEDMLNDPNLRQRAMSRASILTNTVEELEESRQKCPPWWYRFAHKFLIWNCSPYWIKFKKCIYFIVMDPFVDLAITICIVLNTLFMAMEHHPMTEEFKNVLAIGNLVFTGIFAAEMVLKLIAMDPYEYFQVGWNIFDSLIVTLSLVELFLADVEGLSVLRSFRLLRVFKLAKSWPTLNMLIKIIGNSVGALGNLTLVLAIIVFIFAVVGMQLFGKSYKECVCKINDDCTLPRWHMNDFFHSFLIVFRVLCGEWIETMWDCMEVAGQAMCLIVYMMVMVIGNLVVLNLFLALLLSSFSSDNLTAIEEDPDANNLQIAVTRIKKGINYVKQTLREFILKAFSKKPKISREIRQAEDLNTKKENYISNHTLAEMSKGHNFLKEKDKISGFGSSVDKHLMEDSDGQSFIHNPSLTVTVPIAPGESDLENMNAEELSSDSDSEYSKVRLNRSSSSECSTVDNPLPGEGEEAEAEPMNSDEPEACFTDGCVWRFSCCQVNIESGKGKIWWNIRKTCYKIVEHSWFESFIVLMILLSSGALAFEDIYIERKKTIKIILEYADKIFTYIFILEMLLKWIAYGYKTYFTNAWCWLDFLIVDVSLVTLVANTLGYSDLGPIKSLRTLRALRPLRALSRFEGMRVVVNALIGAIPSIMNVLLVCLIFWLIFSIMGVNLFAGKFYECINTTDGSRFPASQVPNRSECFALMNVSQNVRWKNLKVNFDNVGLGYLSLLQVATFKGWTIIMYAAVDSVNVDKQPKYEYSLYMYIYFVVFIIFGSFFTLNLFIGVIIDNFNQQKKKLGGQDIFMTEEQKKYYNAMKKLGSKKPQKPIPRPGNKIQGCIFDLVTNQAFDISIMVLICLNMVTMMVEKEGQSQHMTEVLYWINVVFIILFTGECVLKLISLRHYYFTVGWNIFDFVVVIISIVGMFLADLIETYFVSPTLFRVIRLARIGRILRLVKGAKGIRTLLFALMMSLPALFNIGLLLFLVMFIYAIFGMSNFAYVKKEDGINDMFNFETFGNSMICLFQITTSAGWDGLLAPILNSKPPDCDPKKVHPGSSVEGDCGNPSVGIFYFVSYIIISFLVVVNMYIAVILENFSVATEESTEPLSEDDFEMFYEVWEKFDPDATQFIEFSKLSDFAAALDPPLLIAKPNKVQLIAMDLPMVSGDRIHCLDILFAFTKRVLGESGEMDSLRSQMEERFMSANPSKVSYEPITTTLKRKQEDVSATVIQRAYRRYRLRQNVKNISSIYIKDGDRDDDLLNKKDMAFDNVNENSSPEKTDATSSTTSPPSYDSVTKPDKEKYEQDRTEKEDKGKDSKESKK
Structure (SMILES),IC50 (Nav 1.5; [1]) [µM],IC50 (Nav 1.7) [µM],other results
"O=S(=O)(Nc1ncc(F)cn1)c1ccc2c(c1)OCC[C@@H]2c1ccc(C(F)(F)F)cc1OC1COC1 (racemic) [Example-218, (S/R)—N-(5-fluoropyrimidin-2-yl)-4-(2-(oxetan-3-yloxy)-4-(trifluoromethyl)phenyl)chroman-7-sulfonamide]",> 10,0.043,
"O=S(=O)(Nc1cccc(F)n1)c1ccc2c(c1)OCC[C@@H]2c1ccc(C(F)(F)F)cc1OC1COC1 (racemic) [Example-219, (S/R)—N-(6-fluoropyridin-2-yl)-4-(2-(oxetan-3-yloxy)-4-(trifluoromethyl)phenyl)chromane-7-sulfonamide]",,0.034,inhibition at 10 µM (Nav 1.5): 40%
"Cc1nc(-c2cc(C(F)(F)F)ccc2[C@H]2CCOc3cc(S(=O)(=O)Nc4ncccn4)ccc32)ccc1F (racemic) [Example-222, (R/S)-4-(2-(5-fluoro-6-methylpyridin-2-yl)-4-(trifluoromethyl)phenyl)-N-(pyrimidin-2-yl)chroman-7-sulfonamide]",,0.063,inhibition at 10 µM (Nav 1.5): 73%
"Cc1nc(-c2cc(C(F)(F)F)ccc2[C@H]2CCOc3cc(S(=O)(=O)Nc4ncc(F)cn4)ccc32)ccc1F (racemic) [Example-223, (R/S)-4-(2-(5-fluoro-6-methylpyridin-2-yl)-4-(trifluoromethyl)phenyl)-N-(5-fluoropyrimidin-2-yl)chroman-7-sulfonamide]",,0.082,inhibition at 10 µM (Nav 1.5): 33%
"Cc1nc(-c2cc(C(F)(F)F)ccc2[C@H]2CCOc3cc(S(=O)(=O)Nc4cccnn4)ccc32)ccc1F (racemic) [Example-224, (R/S)-4-(2-(5-fluoro-6-methylpyridin-2-yl)-4-(trifluoromethyl)phenyl)-N-(pyridazin-3-yl)chroman-7-sulfonamide]",,0.051,IC50 (Nav 1.5; read-out: Nav1.5 IC50): 2.12 µM
"Cc1nc(-c2cc(C(F)(F)F)ccc2[C@H]2CCOc3cc(S(=O)(=O)Nc4cccc(F)n4)ccc32)ccc1F (racemic) [Example-225, (R/S)-4-(2-(5-fluoro-6-methylpyridin-2-yl)-4-(trifluoromethyl)phenyl)-N-(6-fluoropyridin-2-yl)chroman-7-sulfonamide]",,0.012,IC50 (Nav 1.5; read-out: Nav1.5 IC50): 1.5 µM
"O=S1(=O)CCN(c2cc(C(F)(F)F)ccc2[C@H]2CCOc3cc(S(=O)(=O)Nc4cccnn4)ccc32)CC1 (racemic) [Example-236, (R/S)-4-(2-(1,1-dioxidothiomorpholino)-4-(trifluoromethyl)phenyl)-N-(pyridazin-3-yl)chroman-7-sulfonamide]",> 10,0.113,
"Cc1ccc(-c2cc(C(F)(F)F)ccc2[C@H]2CCOc3cc(S(=O)(=O)Nc4cccnn4)ccc32)cn1 (stereo in doubt) [Example-205, (R/S)-4-(2-(6-methylpyridin-3-yl)-4-(trifluoromethyl)phenyl)-N-(pyridazin-3-yl)chroman-7-sulfonamide]",,0.008,IC50 (Nav 1.5; read-out: Nav1.5 IC50): 0.25 µM
"Cn1nccc1-c1cc(C(F)(F)F)ccc1[C@@H]1CCOc2cc(S(=O)(=O)Nc3cnccn3)ccc21 [Example 11, (S&R)-4-(2-(1-Methyl-1H-pyrazol-5-yl)-4-(trifluoromethyl)phenyl)-N-(pyrazin-2-yl) chromane-7-sulfonamide]",> 10,,Nav1.7 inhibition @ 10 μM (Nav 1.7): 96%
"Cn1nccc1-c1cc(C(F)(F)F)ccc1[C@@H]1CCOc2cc(S(=O)(=O)Nc3ncccc3F)ccc21 [Example 17, (S&R)—N-(3-Fluoropyridin-2-yl)-4-(2-(1-methyl-1H-pyrazol-5-yl)-4-(trifluoromethyl)phenyl)chromane-7-sulfonamide]",> 10,,Nav1.7 inhibition @ 10 μM (Nav 1.7): 96%
"Cn1nccc1-c1cc(C(F)(F)F)ccc1[C@H]1CCOc2cc(S(=O)(=O)Nc3ncccc3F)ccc21 [Example 18, (S&R)—N-(3-Fluoropyridin-2-yl)-4-(2-(1-methyl-1H-pyrazol-5-yl)-4-(trifluoromethyl)phenyl)chromane-7-sulfonamide]",> 10,0.759,
"Cc1cccc(NS(=O)(=O)c2ccc3c(c2)OCC[C@H]3c2ccc(C(F)(F)F)cc2-c2ccnn2C)n1 [Example 19, (S&R)-4-(2-(1-methyl-1H-pyrazol-5-yl)-4-(trifluoromethyl)phenyl)-N-(6-methylpyridin-2-yl)chroman-7-sulfonamide]",> 10,1.01,
"Cc1ccc(NS(=O)(=O)c2ccc3c(c2)OCC[C@H]3c2ccc(C(F)(F)F)cc2-c2ccnn2C)nc1 [Example 21, (S&R)-4-(2-(1-methyl-1H-pyrazol-5-yl)-4-(trifluoromethyl)phenyl)-N-(5-methylpyridin-2-yl)chroman-7-sulfonamide]",,4.27,Nav1.5 % inhibition @ 10 μM (Nav 1.5): 57%
"Cc1ccc(NS(=O)(=O)c2ccc3c(c2)OCC[C@@H]3c2ccc(C(F)(F)F)cc2-c2ccnn2C)nc1 [Example 22, (S&R)-4-(2-(1-methyl-1H-pyrazol-5-yl)-4-(trifluoromethyl)phenyl)-N-(5-methylpyridin-2-yl)chroman-7-sulfonamide]",,2.06,Nav1.5 % inhibition @ 10 μM (Nav 1.5): 74%
"Cc1ccnc(NS(=O)(=O)c2ccc3c(c2)OCC[C@H]3c2ccc(C(F)(F)F)cc2-c2ccnn2C)c1 [Example 23, (S&R)-4-(2-(1-methyl-1H-pyrazol-5-yl)-4-(trifluoromethyl)phenyl)-N-(4-methylpyridin-2-yl)chroman-7-sulfonamide]",,3.69,Nav1.5 % inhibition @ 10 μM (Nav 1.5): 59%
"Cc1ccnc(NS(=O)(=O)c2ccc3c(c2)OCC[C@@H]3c2ccc(C(F)(F)F)cc2-c2ccnn2C)c1 [Example 24, (S&R)-4-(2-(1-methyl-1H-pyrazol-5-yl)-4-(trifluoromethyl)phenyl)-N-(4-methylpyridin-2-yl)chroman-7-sulfonamide]",,0.816,IC50 (Nav 1.5; read-out: Nav1.5 IC50): 3.92 µM
"CC(C)Oc1cccc(NS(=O)(=O)c2ccc3c(c2)OCC[C@H]3c2ccc(C(F)(F)F)cc2-c2ccnn2C)n1 [Example 25, (S&R)—N-(6-isopropoxypyridin-2-yl)-4-(2-(1-methyl-1H-pyrazol-5-yl)-4-(trifluoromethyl)phenyl)chroman-7-sulfonamide]",> 10,0.221,
"CC(C)Oc1cccc(NS(=O)(=O)c2ccc3c(c2)OCC[C@@H]3c2ccc(C(F)(F)F)cc2-c2ccnn2C)n1 [Example 26, (S&R)—N-(6-isopropoxypyridin-2-yl)-4-(2-(1-methyl-1H-pyrazol-5-yl)-4-(trifluoromethyl)phenyl)chroman-7-sulfonamide]",> 10,0.685,
"Cn1nccc1-c1cc(C(F)(F)F)ccc1[C@@H]1CCOc2cc(S(=O)(=O)Nc3cccnc3F)ccc21 [Example 27, (S&R)—N-(2-fluoropyridin-3-yl)-4-(2-(1-methyl-1H-pyrazol-5-yl)-4-(trifluoromethyl)phenyl)chroman-7-sulfonamide]",> 10,,Nav1.7 inhibition @ 10 μM (Nav 1.7): 80%
"Cn1nccc1-c1cc(C(F)(F)F)ccc1[C@H]1CCOc2cc(S(=O)(=O)Nc3cccnc3F)ccc21 [Example 28, (S&R)—N-(2-fluoropyridin-3-yl)-4-(2-(1-methyl-1H-pyrazol-5-yl)-4-(trifluoromethyl)phenyl)chroman-7-sulfonamide]",> 10,1.57,
"Cc1ccnc(NS(=O)(=O)c2ccc3c(c2)OCC[C@H]3c2ccc(C(F)(F)F)cc2-c2ccnn2C)n1 [Example 29, (S&R)-4-(2-(1-methyl-1H-pyrazol-5-yl)-4-(trifluoromethyl)phenyl)-N-(4-methylpyrimidin-2-yl)chroman-7-sulfonamide]",> 10,,Nav1.7 inhibition @ 10 μM (Nav 1.7): 91%
"Cc1ccnc(NS(=O)(=O)c2ccc3c(c2)OCC[C@@H]3c2ccc(C(F)(F)F)cc2-c2ccnn2C)n1 [Example 30, (S&R)-4-(2-(1-methyl-1H-pyrazol-5-yl)-4-(trifluoromethyl)phenyl)-N-(4-methylpyrimidin-2-yl)chroman-7-sulfonamide]",> 10,,Nav1.7 inhibition @ 10 μM (Nav 1.7): 72%
"Cn1nccc1-c1cc(Cl)ccc1[C@@H]1CCOc2cc(S(=O)(=O)Nc3cccc(F)n3)ccc21 [Example 31, (S&R)-4-(4-chloro-2-(1-methyl-1H-pyrazol-5-yl)phenyl)-N-(6-fluoropyridin-2-yl)chroman-7-sulfonamide]",> 10,2.05,
"Cn1nccc1-c1cc(Cl)ccc1[C@H]1CCOc2cc(S(=O)(=O)Nc3cccc(F)n3)ccc21 [Example 32, (S&R)-4-(4-chloro-2-(1-methyl-1H-pyrazol-5-yl)phenyl)-N-(6-fluoropyridin-2-yl)chroman-7-sulfonamide]",> 10,0.151,
"CC(C)Oc1ccc([C@@H]2CCOc3cc(S(=O)(=O)Nc4cccc(F)n4)ccc32)c(-c2ccnn2C)c1 [Example 33, (S&R)—N-(6-fluoropyridin-2-yl)-4-(4-isopropoxy-2-(1-methyl-1H-pyrazol-5-yl)phenyl)chroman-7-sulfonamide]",> 10,0.514,
"CC(C)Oc1ccc([C@H]2CCOc3cc(S(=O)(=O)Nc4cccc(F)n4)ccc32)c(-c2ccnn2C)c1 [Example 34, (S&R)—N-(6-fluoropyridin-2-yl)-4-(4-isopropoxy-2-(1-methyl-1H-pyrazol-5-yl)phenyl)chroman-7-sulfonamide]",> 10,0.057,
"O=S(=O)(Nc1cccnn1)c1ccc2c(c1)OCC[C@H]2c1ccc(C(F)(F)F)cc1-c1ccc(F)nc1 [Example 41, (S&R)-4-(2-(6-Fluoropyridin-3-yl)-4-(trifluoromethyl)phenyl)-N-(pyridazin-3-yl)chromane-7-sulfonamide]",> 10,0.622,
"O=S(=O)(Nc1cccnn1)c1ccc2c(c1)OCC[C@@H]2c1ccc(C(F)(F)F)cc1-c1ccc(F)nc1 [Example 42, (S&R)-4-(2-(6-Fluoropyridin-3-yl)-4-(trifluoromethyl)phenyl)-N-(pyridazin-3-yl)chromane-7-sulfonamide]",,0.0002,IC50 (Nav 1.5; read-out: Nav1.5 IC50): 0.644 µM
